Assays:
[1] = system: ssGPR55-K80A and ssGPR55-Q87A; assay: LPI-induced MAPK activation in shGPR55-HeLa clones expressing ssGPR55 mutants; assay type: cell-based, human; details: 10 µM 18:0 LPI
Excerpt: The construct of haemagglutinin (HA)-tagged human GPR55 in pcDNA3 (HA-GPR55) was a gift from Prof. K. Mackie, Indiana University, Bloomington, IN, USA [39], while the construct ss-3 × HA-GPR55 in pcDNA3.1 (ssGPR55) with a triple HA tag at the N-terminus and an optimised signal sequence (ss, derived from amino acids 1–33 of the human growth hormone: […]) for efficient surface expression was from Prof. A. Irving, Dundee University, UK [40]. For both constructs, mutations were introduced by site-directed mutagenesis using QuickChange kits (Stratagene, La Jolla, CA, USA), according to the manufacturer instructions. The primers for the K80A mutation were 5′-[…]-3′ and 5′-[…]-3′ (Tm, 70.6 °C), and for Q87A were 5′-[…]-3′ and 5′-[…]-3′ (Tm, 73.1 °C).
HeLa cells were plated at 1.5 × 10^5 cells/well in six-well plates in their growth medium without antibiotics. Twenty-four hours later, the cells were transfected with 2.5 µg/well pcDNA3.1, or the mutants ssGPR55-K80A, ssGPR55-Q87A, or 1.25 µg/well (complemented with 1.25 µg/well empty vector) ssGPR55, using Lipofectamine 2000, according to the manufacturer instructions. The different cDNA amounts were necessary to reach equivalent plasma-membrane expression of the receptors, as the mutants were expressed at lower levels, as verified by FACS analyses, and in line with previous reports.
For stable interference of GPR55, HeLa cells were plated at 1.5 × 10^5 cells/well in six-well plates in growth medium without antibiotics, and 24 h later, the cells were transfected with 1.7 µg/well OmicsLink short hairpin (sh)RNA expression clone CSHCTR001-CU6 (shCTRL) or clone HSH022476-3-CU6 (shGPR55) from GeneCopoeia (Rockville, MD, USA), using Lipofectamine 2000, according the manufacturer instructions. Forty-eight hours after transfection, HeLa clones stably expressing shRNAs were selected in growth medium containing 0.3 µg/mL puromycin. The efficiency of interference was monitored by real-time PCR using the primers listed in the Additional file 1: Table S1. HPRT1 was followed as a housekeeping gene. […]

RAW264.7 cells = assay: Filamentous actin (phalloidin) FACS analysis of RAW264.7 cells; assay type: cell-based, murine; details: 10 µM soybean LPI
Experimental: For transient interference of Gpr55, RAW264.7 cells were plated at 6 × 10^5 cells/well in six-well plates in growth medium without antibiotics. Twenty-four hours later, the cells were transfected with 250 pmol/well non-targeting small-interfering (si)RNAs (si-NT; siGENOME siRNA Pool #2; D-001206-14; Dharmacon, Chicago, IL, USA) or Gpr55-specific siRNAs (si-GPR55; siGENOME mouse GPR55 SMART pool; M-043590-01; Dharmacon) using Lipofectamine LTX and Plus Reagent, according to the manufacturer instructions. Twenty-four hours later, the cells were plated for the different assays or for RNA extraction. The efficiency of interference was monitored by real-time PCR after 72 h of interference, using the primers listed in the Additional file 1: Table S1. β2-microglobulin was followed as a housekeeping gene.
Twenty-four hours after plating the RAW264.7 cells at a density of 1.2 × 10^6 cells/well in six-well plates, or 2.5 × 10^5 cells/well in 24-well plates on coverslips, the cells were serum deprived for 2 h and then stimulated while adhered, with LPI in the assay buffer (0.1% faf-BSA, 20 mM HEPES in HBSS^++). Stimulation was blocked by two washes with HBSS^++, and cells on coverslips were processed for immunofluorescence (see below), while the cells in the six-well plates were scraped into cytoskeleton buffer (10 mM 4-morpholineethanesulfonic acid, 150 mM NaCl, 5 mM EGTA, 5 mM MgCl2, 5 mM glucose), for FACS analysis. For the latter, an equal volume of fixation solution (1% Triton X-100, 0.5% glutaraldehyde, in cytoskeleton buffer) was added to the cell suspension and left for 2 min at room temperature. […] Finally, the fixed cells were stained with 33 nM Alexa546-labelled phalloidin for 1 h at room temperature, washed three times (10 min each) with cytoskeleton buffer, suspended in PBS with 3% BSA, and analysed by FACS (FACSCalibur or FACSAria III; Becton Dickinson, Franklin Lakes, NJ).

In the case of lysophosphatidylinositol [LPI], the “LPI-stimulated activation of p38” value [1] is reported as “no LPI-stimulated activation of p38”, the “LPI-stimulated activation of ERK2, 5 min” value ([1]; 5 min) is reported as “no response at 5 min” and the “LPI-stimulated activation of ERK2, 10 min” value ([1]; 10 min) is reported as “reduced response at 10 min”. The “mean phalloidin fluorescence on LPI addition, si-GPR55” value (RAW264.7 cells; si-GPR55 cells) was “did not increase further on LPI addition”, the “mean phalloidin fluorescence, si-NT” value (RAW264.7 cells; si-NT cells) was “significant increase in the mean phalloidin fluorescence” and the “maximal increase in phalloidin mean fluorescence” value (RAW264.7 cells; wild-type RAW264.7, 15 min, sub-populations #1 and #2, at least five independent experiments) was 20%.

From paper PMC8073907, “Peptide targeting of lysophosphatidylinositol-sensing GPR55 for osteoclastogenesis tuning” (Cell Communication and Signaling : CCS, 2021)
